Assays:
[1] = system: Murine vascular smooth muscle cells (SMCs); test: Smooth muscle cell migration assay (wounding assay), RAGE ligand CML-AGE; format: cell-based; design: key to SMC migration Assay, IC50 (nM): ****: No inhibition or bad fit or inhibition out of range; details: CML-AGE 10 μg/ml, 7 h; for IC50: Mus musculus, read-out: SMC migration Assay, IC50
Protocol: FIG. 4 depicts effects of compounds on RAGE ligand-stimulated migration of murine aortic smooth muscle cells (SMCs). Migration of SMCs after incubation with the indicated RAGE inhibitor compounds or the parent molecule (“C12”) quinolone from the Chem-Bridge library was assessed. SMCs were grown to confluence and serum-starved overnight. The following morning, serum free media was removed and compounds were added (1 μM). Immediately following the addition of compounds, the monolayer was wounded using a p200 pipette tip and allowed to incubate for 1.5 h. Following this incubation, compounds were removed and fresh media containing RAGE ligand, CML-AGE (10 μg/ml), was added for 7 h. All images were measured at TO and T7 h and an area ingrowth of effective migrating cells was calculated. Each compound was tested in three independent wells and each well was photographed in 3 separate locations for a total of 9 images used in assessing area ingrowth. Error bars represent SEM. * indicates p<0.05 comparing CML-AGE vs. CML-AGE and compound treatment and # indicates p<0.001 comparing CML-AGE vs. serum free medium (SFM) vehicle. Note that SFM is the vehicle into which the RAGE ligand, CML-AGE, is added for testing the effect of RAGE ligand.
Murine vascular smooth muscle cells (SMCs) were cultured from the aortas of 10-week old male mice using a modification of the procedure of Travo and Barret^17. SMCs were cultured following an explant protocol in accordance with institutional guidelines. Wild-type murine aortic vascular SMCs were isolated and used between passages 8 to 12. Migration in response to the RAGE ligand CML-AGE (CML, 10 μg/ml) or a general effector, not a RAGE ligand, PDGF-BB, 10 ng/ml (R&D systems, Minneapolis, Minn., USA) was assessed with a wounding assay. Cells were grown to confluence in 12-well plates and starved overnight. The following morning, serum free media was removed and compounds were added. Immediately following the addition of compounds, the monolayer was wounded using a p200 pipette tip and the compounds were allowed to incubate for 1.5 h. Following this incubation, all compounds were removed and fresh media containing RAGE ligand or general effector, PDGF-BB, was added for 7 h. Cells were maintained at 37° C. and 5% CO2. Images were obtained at TO and T7. Each image was measured and an area ingrowth of effective migrating cells was calculated. The SMC migration assay data for representative compounds, Compounds 229 and 247, is depicted in FIGS. 5a and 5b, respectively.

ctRAGE = ctRAGE (Homo sapiens (Human), UniProt Q15109); test: Fluorescence binding assay (native tryptophan fluorescence titration); design: key to Fluorescent Binding Assay, Kd (nM): ***: No binding; details: 10 nM ctRAGE, pH 7.0, 5% DMSO; for Kd: read-out: Fluorescent Binding Assay, Kd
Protocol: Native tryptophan fluorescence experiments were conducted using a Horiba Jobin Yvon Fluorolog spectrofluorometer. 1 mM of compound was dissolved in 10 mM phosphate buffer [pH 7.0] and 50% DMSO. ctRAGE was bacterially expressed and purified as described^1. 10 nM ctRAGE solution was individually titrated from 0.1 nM-100 μM with the compounds in 100 μL of 10 mM phosphate buffer [pH 7.0] and 5% DMSO. The excitation and emission wavelengths were 280 nm and 352 nm, respectively. Dissociation constants, Kd, were estimated from the changes in peak fluorescence intensities as a function of the free compound concentration by using Prism 5 software (GraphPad). Data were fit to the equation, (F−F0)/Fmax=[compound]/(Kd+[compound]) where F is the fluorescence intensity at a given compound concentration, F0 is the fluorescence intensity of the blank, and Fmax is the maximum fluorescence intensity.

ctRAGE, sequence (Q15109 364-404): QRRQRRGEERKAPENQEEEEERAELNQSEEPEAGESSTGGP

| IC50 [1] [nM] | Kd (ctRAGE) [nM] | SMC migration Assay, IC50 (nM) [1] | Fluorescent Binding Assay, Kd (nM) (ctRAGE) | Structure (SMILES) |
| --- | --- | --- | --- | --- |
| 4 | 34 |  |  | CC(=O)Nc1ccc(-c2cc(CN3CCOCC3)c3ccccc3n2)cc1F [Compound 214, N-(2-fluoro-4-(4-(morpholinomethyl)quinolin-2-yl)phenyl)acetamide] |
| 460 | 27 |  |  | CC(=O)Nc1ccc(-c2cc(CN3CCOCC3)c3ccccc3n2)cc1Cl [Compound 215, N-(2-chloro-4-(4-(morpholinomethyl)quinolin-2-yl)phenyl)acetamide] |
|  |  | **** | *** | COc1cc(-c2cc(CN3CCOCC3)c3ccccc3n2)ccc1NC(C)=O [Compound 216, N-(2-methoxy-4-(4-(morpholinomethyl)quinolin-2-yl)phenyl)acetamide] |
|  |  | **** | *** | CC(=O)Nc1ccc(-c2cc(CN3CCOCC3)c3ccccc3n2)cc1O [Compound 217, N-(2-hydroxy-4-(4-(morpholinomethyl)quinolin-2-yl)phenyl)acetamide] |
| 133 | 80 |  |  | CC(=O)Nc1ccc(-c2cc(CN3CCOCC3)c3ccccc3n2)cc1C#N [Compound 218, N-(2-cyano-4-(4-(morpholinomethyl)quinolin-2-yl)phenyl)acetamide] |
|  | 89 | **** |  | O=C(CO)Nc1ccc(-c2cc(CN3CCOCC3)c3ccccc3n2)cc1 [Compound 219, 2-hydroxy-N-(4-(4-(morpholinomethyl)quinolin-2-yl)phenyl)acetamide] |
| 300 | 22 |  |  | COCC(=O)Nc1ccc(-c2cc(CN3CCOCC3)c3ccccc3n2)cc1 [Compound 220, 2-methoxy-N-(4-(4-(morpholinomethyl)quinolin-2-yl)phenyl)acetamide] |
| 5000 | 34 |  |  | NCC(=O)Nc1ccc(-c2cc(CN3CCOCC3)c3ccccc3n2)cc1 [Compound 221, 2-amino-N-(4-(4-(morpholinomethyl)quinolin-2-yl)phenyl)acetamide] |
| 3200 | 32 |  |  | CC(=O)NCC(=O)Nc1ccc(-c2cc(CN3CCOCC3)c3ccccc3n2)cc1 [Compound 222, 2-acetamido-N-(4-(4-(morpholinomethyl)quinolin-2-yl)phenyl)acetamide] |
|  | 72 |  |  | CCC(=O)Nc1ccc(-c2cc(CN3CCOCC3)c3ccccc3n2)cc1 [Compound 223, N-(4-(4-(morpholinomethyl)quinolin-2-yl)phenyl)propionamide] |
| 99 | 32 |  |  | CC(C)C(=O)Nc1ccc(-c2cc(CN3CCOCC3)c3ccccc3n2)cc1 [Compound 224, N-(4-(4-(morpholinomethyl)quinolin-2-yl)phenyl)isobutyramide] |
| 44 | 122 |  |  | CC(=O)Nc1ccc(-c2cc(CN3CCOCC3)c3ccc(F)cc3n2)cc1 [Compound 225, N-(4-(7-fluoro-4-(morpholinomethyl)quinolin-2-yl)phenyl)acetamide] |
| 3 | 25 |  |  | CC(=O)Nc1ccc(-c2cc(CN3CCOCC3)c3ccc(Cl)cc3n2)cc1 [Compound 226, N-(4-(7-chloro-4-(morpholinomethyl)quinolin-2-yl)phenyl)acetamide] |
|  | 10 | **** |  | CC(=O)Nc1ccc(-c2cc(CN3CCOCC3)c3ccc(C)cc3n2)cc1 [Compound 227, N-(4-(7-methyl-4-(morpholinomethyl)quinolin-2-yl)phenyl)acetamide] |
| 10 | 122 |  |  | COc1ccc2c(CN3CCOCC3)cc(-c3ccc(NC(C)=O)cc3)nc2c1 [Compound 228, N-(4-(7-methoxy-4-(morpholinomethyl)quinolin-2-yl)phenyl)acetamide] |
| 0.2 | 3 |  |  | CC(=O)Nc1ccc(-c2cc(CN3CCOCC3)c3ccc(C#N)cc3n2)cc1 [Compound 229, N-(4-(7-cyano-4-(morpholinomethyl)quinolin-2-yl)phenyl)acetamide] |

| IC50 [1] [nM] | Kd (ctRAGE) [nM] | SMC migration Assay, IC50 (nM) [1] | Fluorescent Binding Assay, Kd (nM) (ctRAGE) | Structure (SMILES) |
| --- | --- | --- | --- | --- |
|  |  | **** | *** | CC(=O)Nc1ccc(-c2cc(CN3CCOCC3)c3ccc(C(N)=O)cc3n2)cc1 [Compound 230, 2-(4-acetamidophenyl)-4-(morpholinomethyl)quinoline-7-carboxamide] |
| 18 | 47 |  |  | CC(=O)Nc1ccc(-c2cc(CNCCO)c3ccccc3n2)cc1 [Compound 231, N-(4-(4-(((2-hydroxyethyl)amino)methyl)quinolin-2-yl)phenyl)acetamide] |
|  |  | **** | *** | CC(=O)Nc1ccc(-c2cc(CN(C)CCO)c3ccccc3n2)cc1 [Compound 232, N-(4-(4-(((2-hydroxyethyl)(methyl)amino)methyl)quinolin-2-yl)phenyl)acetamide] |
|  |  | **** |  | COCCNCc1cc(-c2ccc(NC(C)=O)cc2)nc2ccccc12 [Compound 233, N-(4-(4-(((2-methoxyethyl)amino)methyl)quinolin-2-yl)phenyl)acetamide] |
| 0.4 | 12 |  |  | COCCN(C)Cc1cc(-c2ccc(NC(C)=O)cc2)nc2ccccc12 [Compound 234, N-(4-(4-(((2-methoxyethyl)(methyl)amino)methyl)quinolin-2-yl)phenyl)acetamide] |
| 17 | 76 |  |  | CCCNCc1cc(-c2ccc(NC(C)=O)cc2)nc2ccccc12 [Compound 235, N-(4-(4-((propylamino)methyl)quinolin-2-yl)phenyl)acetamide] |
| 0.1 | 56 |  |  | CCCN(C)Cc1cc(-c2ccc(NC(C)=O)cc2)nc2ccccc12 [Compound 236, N-(4-(4-((methyl(propyl)amino)methyl)quinolin-2-yl)phenyl)acetamide] |
|  |  | **** | *** | CCCCNCc1cc(-c2ccc(NC(C)=O)cc2)nc2ccccc12 [Compound 237, N-(4-(4-((butylamino)methyl)quinolin-2-yl)phenyl)acetamide] |
| 0.08 | 16 |  |  | CCCCN(C)Cc1cc(-c2ccc(NC(C)=O)cc2)nc2ccccc12 [Compound 238, N-(4-(4-((butyl(methyl)amino)methyl)quinolin-2-yl)phenyl)acetamide] |
| 1500 |  |  |  | COc1ccc2c(CN3CCOCC3)cc(-c3ccc(NC(C)=O)c(Cl)c3)nc2c1 [Compound 257, N-(2-chloro-4-(7-methoxy-4-(morpholinomethyl)quinolin-2-yl)phenyl)acetamide] |
| 323 |  |  |  | COc1ccc2c(CN3CCOCC3)cc(-c3ccc(NC(C)=O)c(C#N)c3)nc2c1 [Compound 258, N-(2-cyano-4-(7-methoxy-4-(morpholinomethyl)quinolin-2-yl)phenyl)acetamide] |
|  |  | **** |  | CC(=O)Nc1ccc(-c2cc(CN3CCOCC3)c3ccc(C#N)cc3n2)cc1F [Compound 259, N-(4-(7-cyano-4-(morpholinomethyl)quinolin-2-yl)-2-fluorophenyl)acetamide] |
| 14 |  |  |  | CC(=O)Nc1ccc(-c2cc(CN3CCOCC3)c3ccc(C#N)cc3n2)cc1Cl [Compound 260, N-(2-chloro-4-(7-cyano-4-(morpholinomethyl)quinolin-2-yl)phenyl)acetamide] |
| 1400 |  |  |  | CC(=O)Nc1ccc(-c2cc(CN3CCOCC3)c3ccc(C#N)cc3n2)cc1C#N [Compound 261, N-(2-cyano-4-(7-cyano-4-(morpholinomethyl)quinolin-2-yl)phenyl)acetamide] |
| 2900 |  |  |  | CCOc1ccc2c(CN3CCOCC3)cc(-c3ccc(NC(C)=O)c(F)c3)nc2c1 [Compound 262, N-(4-(7-ethoxy-4-(morpholinomethyl)quinolin-2-yl)-2-fluorophenyl)acetamide] |
